This assay relates to type III protein secretion system of P. aeruginosa PA103 (ExoU secretion). Briefly: Tertiary assay: Type III-dependent secretion of ExoU by P. aeruginosa PA103. In kind it is cell-based. As to conditions: Pseudomonas aeruginosa, ExoU secreted into extracellular medium. From the text:
Tertiary assay: inhibition of Type III protein secretion of effectors from a Pseudomonas aeruginosa system. Type III protein secretion is used by P. aeruginosa to secrete several essential virulence determinants. One effector of the type III protein secretion system of P. aeruginosa PA103 is the virulence determinants ExoU.
The amount of Type III-dependent secretion of ExoU by P. aeruginosa PA103 can be determined in a cell-based assay by quantification of the 73.9 kDa ExoU protein scereted into the extracellular medium. Such quantitation can be achieved by growing strain PA103 in a deferrated medium in the presence of nitrilotriacetic acid (an inducer of Type III protein secretion in P. aeruginosa) and either in the presence or absence of putative inhibitors. After a prolonged growth period, the cells are sedimented and the supernatants concentrated by ammonium sulfate precipitation. The proteins in the resuspended pellets are separated by electrophoresis on SDS-polyacrylamide gels. After staining gels with Colloidal Blue™, the 73.9 kDa ExoU band is quantitated by scanning through an imager. The effects of inhibitors on the intensity of the ExoU band may be measured relative to that of untreated controls.
`N#Cc1ccc(-c2oc(-c3ccc(C(F)(F)F)cc3)nc2C(=O)NC(CSCc2ccccc2)C(=O)O)cc1` (stereo in doubt) [Compound 1, (R)-3-Benzylsulfanyl-2-{[5-(4-cyanophenyl)-2-(4-trifluoromethylphenyl)oxazole-4-carbonyl]amino}propionic acid] showed an IC50 of 70.7 µM.

The compound `O=C(NC(Cc1ccc(Cl)cc1)C(=O)O)c1[nH]c(-c2ccc(-c3ccccc3)cc2)nc1-c1cccc(C(F)(F)F)c1` (stereo not shown) [Compound 3, 2-{[2-Biphenyl-4-yl-5-(3-trifluoromethylphenyl)-3H-imidazole-4-carbonyl]amino}-3-(4-chlorophenyl)propionic acid] came in with a concentration for half-maximal inhibition (IC50) of 20.6 µM.

Compound `O=C(N[C@H](Cc1ccc(Cl)cc1)C(=O)O)c1nc(-c2ccc(-c3ccccc3)cc2)nn1-c1cccc(C(F)(F)F)c1` [Compound 4, (R)-2-{[5-Biphenyl-4-yl-2-(3-trifluoromethylphenyl)-2H-[1,2,4]triazole-3-carbonyl]amino}-3-(4-chlorophenyl)propionic acid] returned a concentration for half-maximal inhibition (IC50) of 56.6 µM.

As for `O=C(N[C@@H](CSCc1ccccc1)C(=O)O)c1nc(-c2ccc(C(F)(F)F)cc2)oc1-c1ccc(-c2ccccc2)cc1` [Compound 5, (R)-3-Benzylsulfanyl-2-{[5-biphenyl-4-yl-2-(4-trifluoromethylphenyl)oxazole-4-carbonyl]amino}propionic acid], the concentration for half-maximal inhibition (IC50) came out at 12.5 µM.

Turning to `O=C(N[C@@H](CSCc1ccccc1)C(=O)O)c1nc(-c2ccc(C(F)(F)F)cc2)sc1-c1ccc(OCc2ccccc2)cc1` [Compound 7, (R)-2-{[5-(4-Benzyloxyphenyl)-2-(4-trifluoromethylphenyl)thiazole-4-carbonyl]amino}-3-benzylsulfanylpropionic acid], the IC50 came out at 54.4 µM.

`O=C(N[C@@H](CSCc1ccccc1)C(=O)O)c1nc(-c2ccc(Oc3ccccc3)cc2)oc1-c1ccc(Cl)c(Cl)c1` [Compound 8, (R)-3-Benzylsulfanyl-2-{[5-(3,4-dichlorophenyl)-2-(4-phenoxyphenyl)oxazole-4-carbonyl]amino}propionic acid] registered a concentration for half-maximal inhibition (IC50) of 45.4 µM.

Take `O=C(N[C@@H](CSCc1ccccc1)C(=O)O)c1nc(-c2ccc(C(F)(F)F)cc2)oc1C#Cc1ccccc1` [Compound 9, (R)-3-Benzylsulfanyl-2-{[5-phenylethynyl-2-(4-trifluoromethylphenyl)oxazole-4-carbonyl]amino}propionic acid]: inhibition was half-maximal at 26.7 µM (IC50).

On to `O=C(N[C@@H](COCc1ccccc1)C(=O)O)c1nc(-c2ccc(C(F)(F)F)cc2)oc1C#Cc1ccccc1` [Compound 10, (S)-3-Benzyloxy-2-{[5-phenylethynyl-2-(4-trifluoromethylphenyl)oxazole-4-carbonyl]amino}propionic acid], for which the IC50 was 42.4 µM.

In turn, `O=C(N[C@@H](COCc1ccccc1)C(=O)O)c1nc(-c2ccc(Oc3ccccc3)cc2)oc1-c1ccc(Cl)c(Cl)c1` [Compound 13, (S)-3-Benzyloxy-2-{[5-(3,4-dichlorophenyl)-2-(4-phenoxyphenyl)-oxazole-4-carbonyl]amino}propionic acid] gave an IC50 of 19.3 µM.

In turn, `O=C(N[C@@H](CSCc1ccccc1)C(=O)O)c1nc(-c2ccc(C(F)(F)F)cc2)oc1-c1ccc(N2CCCCC2)nc1` [Compound 14, (R)-3-Benzylsulfanyl-2-{[5-(3,4,5,6-tetrahydro-2H-[1,2′]bipyridin-5′-yl)-2-(4-trifluoromethylphenyl)oxazole-4-carbonyl]amino}propionic acid] returned an IC50 of 62.8 µM.

In turn, `O=C(NC(Cc1ccc(Cl)cc1)C(=O)O)c1nc(-c2ccc(-c3ccccc3)cc2)oc1-c1cccc(C(F)(F)F)c1` (stereo not shown) [Compound 15, 2-{[2-Biphenyl-4-yl-5-(3-trifluoromethylphenyl)oxazole-4-carbonyl]amino}-3-(4-chlorophenyl)propionic acid] came in with an IC50 of 79.9 µM.

In the case of `CN(C(=O)c1nc(-c2ccc(C(F)(F)F)cc2)oc1-c1ccc(-c2ccccc2)cc1)[C@@H](CSCc1ccccc1)C(=O)O` [Compound 16], it took 80.9 µM to reach half-maximal inhibition (IC50).

The compound `O=C(N[C@@H](CSCc1ccccc1)C(=O)O)c1nc(-c2ccc(C(F)(F)F)cc2)oc1-c1ccc(OCc2ccccc2)cc1` [Compound 17, (R)-2-{[5-(4-Benzyloxyphenyl)-2-(4-trifluoromethylphenyl)oxazole-4-carbony]amino}-3-benzylsulfanylpropionic acid] gave a half-maximal inhibitory concentration (IC50) of 34.3 µM.

On to `O=C(N[C@@H](CSCc1ccccc1)C(=O)O)c1nc(-c2ccc(C(F)(F)F)cc2)oc1-c1ccc(-c2cccnc2)cc1` [Compound 18, (R)-3-Benzylsulfanyl-2-{[5-(4-pyridin-3-yl-phenyl)-2-(4-trifluoromethylphenyl)-oxazole-4-carbonyl]amino}propionic acid], for which the IC50 stood at 89.1 µM.

The compound `O=C(N[C@@H](CSCc1ccccc1)C(=O)O)c1nc(-c2ccc(C(F)(F)F)cc2)oc1-c1ccc(-c2ccncc2)cc1` [Compound 19, (R)-3-Benzylsulfanyl-2-{[5-(4-pyridin-4-yl-phenyl)-2-(4-trifluoromethylphenyl)oxazole-4-carbonyl]amino}propionic acid] showed an IC50 of 78.2 µM.

For `O=C(N[C@@H](COCc1ccccc1)C(=O)O)c1nc(-c2ccc(C(F)(F)F)cc2)oc1-c1cc2ccccc2s1` [Compound 22, (S)-2-{[5-Benzo[b]thien-2-yl-2-(4-trifluoromethylphenyl)oxazole-4-carbonyl]amino}-3-benzyloxypropionic acid], the IC50 turned out to be 82.4 µM.

Regarding `O=C(N[C@@H](CSCc1ccccc1)C(=O)O)c1nc(-c2ccc(C(F)(F)F)cc2)oc1-c1cc2ccccc2s1` [Compound 23, (R)-2-{[5-Benzo[b]thien-2-yl-2-(4-trifluoromethylphenyl)oxazole-4-carbonyl]amino}-3-benzylsulfanylpropionic acid], the concentration for half-maximal inhibition (IC50) turned out to be 40.7 µM.

On to `O=C(N[C@@H](COCc1ccccc1)C(=O)O)c1nc(-c2ccc(C(F)(F)F)cc2)oc1-c1ccc2ccccc2n1` [Compound 27, (S)-3-Benzyloxy-2-{[5-quinolin-2-yl-2-(4-trifluoromethylphenyl)oxazole-4-carbonyl]amino}propionic acid], for which the IC50 worked out at 93.1 µM.

In the case of `O=C(N[C@@H](COCc1ccccc1)C(=O)O)c1nc(-c2ccc(C(F)(F)F)cc2)oc1-c1ccc(Cl)nc1` [Compound 29, (S)-3-Benzyloxy-2-{[5-(6-chloropyridin-3-yl)-2-(4-trifluoromethylphenyl)oxazole-4-carbonyl]amino}propionic acid], the IC50 worked out at 73.4 µM.

Take `O=C(N[C@@H](CSCc1ccccc1)C(=O)O)c1nc(-c2ccc(C(F)(F)F)cc2)oc1-c1ccc(-c2ccccc2)nc1` [Compound 33, (R)-3-Benzylsulfanyl-2-{[5-(6-phenylpyridin-3-yl)-2-(4-trifluoromethylphenyl)oxazole-4-carbonyl]amino}propionic acid]: the IC50 stood at 48.9 µM.

In turn, `O=C(N[C@@H](CSCc1ccccc1)C(=O)O)c1nc(-c2ccc(C(F)(F)F)cc2)oc1-c1ccc(-c2ccc(F)cc2)nc1` [Compound 34, (R)-3-Benzylsulfanyl-2-{[5-[6-(4-fluorophenyl)pyridin-3-yl]-2-(4-trifluoromethylphenyl)oxazole-4-carbonyl]amino}propionic acid] showed an IC50 of 47.4 µM.

With `O=C(N[C@@H](COCc1ccccc1)C(=O)O)c1nc(-c2ccc(C(F)(F)F)cc2)oc1-c1cc2ccccc2o1` [Compound 35, (S)-2-{[5-Benzofuran-2-yl-2-(4-trifluoromethylphenyl)oxazole-4-carbonyl]amino}-3-benzyloxypropionic acid], the IC50 was found to be 79.8 µM.

The IC50 is the point on the concentration scale where inhibition reaches its midpoint.

Source of the values: patent US20050272784A1 (priority 2004, published 2005).
